Measurements reported in publication PMC7358406, “Molecular and Biochemical Characterization of Salt-Tolerant Trehalose-6-Phosphate Hydrolases Identified by Screening and Sequencing Salt-Tolerant Clones From the Metagenomic Library of the Gastrointestinal Tract” (Frontiers in Microbiology, 2020).

What was measured:
[1] = system: T1, rTRE_P2 (TRE_P2), trehalose-6-phosphate hydrolase; assay: p-nitrophenol release, A410, initial rates; type: biochemical, Staphylococcus warneri; settings: 50 mM HEPES-NaOH pH 7.5 and 100 mM NaCl (standard assay), 30°C; pNPG 0.5-10 mM
T1 construct: full length without signal peptide, gene 1638 bp

[2] = system: T2, rTRE_P3 (TRE_P3), trehalose-6-phosphate hydrolase; assay: p-nitrophenol release, A410, initial rates; type: biochemical, Staphylococcus warneri; settings: 50 mM HEPES-NaOH pH 7.5 and 100 mM NaCl (standard assay), 30°C; pNPG 0.5-10 mM
T2 construct: full length without signal peptide, gene 1644 bp

**Q.** For `O=[N+]([O-])c1ccc(O[C@H]2O[C@H](CO)[C@@H](O)[C@H](O)[C@H]2O)cc1` [p-nitrophenyl-α-D-glucopyranoside], which Km [1] is on record?
**A.** Its Km is 15.6 mM.

**Q.** What about the Km [2] of the same compound?
**A.** The Km was 12.5 mM.
